Experimental data published in publication PMC7179901, “The aerobic respiratory chain of Pseudomonas aeruginosa cultured in artificial urine media: Role of NQR and terminal oxidases” (PLoS ONE, 2020).

Legend:
[1] = target: T1, purified P. aeruginosa NQR (Pa-NQR) (Pseudomonas aeruginosa, UniProt Q9HZL1); experiment: ubiquinone reductase activity at […] nm; assay type: biochemical; details: 50 μM ubiquinone-1, KHE buffer pH 7.5
T1 construct: gene nqrF; […]; DDM-solubilized, Ni-NTA (tag not described) and DEAE purified; six-subunit complex; with Na(+)-translocating NADH-quinone reductase subunit A; Na(+)-translocating NADH-quinone reductase subunit B; Na(+)-translocating NADH-quinone reductase subunit C; Na(+)-translocating NADH-quinone reductase subunit D; Na(+)-translocating NADH-quinone reductase subunit E
T1 sequence (Q9HZL1 whole entry): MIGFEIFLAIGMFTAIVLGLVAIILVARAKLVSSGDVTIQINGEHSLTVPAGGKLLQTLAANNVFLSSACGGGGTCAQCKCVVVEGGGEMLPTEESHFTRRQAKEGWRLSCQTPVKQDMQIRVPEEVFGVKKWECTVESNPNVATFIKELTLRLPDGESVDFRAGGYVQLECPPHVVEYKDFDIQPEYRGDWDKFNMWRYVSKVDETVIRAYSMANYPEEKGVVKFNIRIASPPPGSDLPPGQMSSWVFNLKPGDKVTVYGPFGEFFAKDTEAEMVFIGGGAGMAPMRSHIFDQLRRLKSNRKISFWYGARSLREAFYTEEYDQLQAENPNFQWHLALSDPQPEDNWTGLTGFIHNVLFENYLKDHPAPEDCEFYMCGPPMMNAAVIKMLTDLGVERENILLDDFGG
T1 sequence (Q9HZK6 whole entry partner): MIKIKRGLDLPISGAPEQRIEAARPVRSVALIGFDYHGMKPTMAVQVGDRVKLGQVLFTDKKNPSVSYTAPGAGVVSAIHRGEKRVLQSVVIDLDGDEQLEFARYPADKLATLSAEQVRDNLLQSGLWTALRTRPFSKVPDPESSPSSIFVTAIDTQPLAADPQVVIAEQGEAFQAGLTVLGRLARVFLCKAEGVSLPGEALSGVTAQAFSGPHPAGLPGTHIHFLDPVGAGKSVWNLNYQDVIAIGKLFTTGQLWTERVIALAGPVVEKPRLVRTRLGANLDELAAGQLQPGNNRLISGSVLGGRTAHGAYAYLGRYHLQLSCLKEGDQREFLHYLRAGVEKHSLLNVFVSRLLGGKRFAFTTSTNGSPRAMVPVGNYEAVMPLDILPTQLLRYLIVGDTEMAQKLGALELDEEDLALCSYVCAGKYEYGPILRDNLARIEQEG
T1 sequence (Q9HZK7 whole entry partner): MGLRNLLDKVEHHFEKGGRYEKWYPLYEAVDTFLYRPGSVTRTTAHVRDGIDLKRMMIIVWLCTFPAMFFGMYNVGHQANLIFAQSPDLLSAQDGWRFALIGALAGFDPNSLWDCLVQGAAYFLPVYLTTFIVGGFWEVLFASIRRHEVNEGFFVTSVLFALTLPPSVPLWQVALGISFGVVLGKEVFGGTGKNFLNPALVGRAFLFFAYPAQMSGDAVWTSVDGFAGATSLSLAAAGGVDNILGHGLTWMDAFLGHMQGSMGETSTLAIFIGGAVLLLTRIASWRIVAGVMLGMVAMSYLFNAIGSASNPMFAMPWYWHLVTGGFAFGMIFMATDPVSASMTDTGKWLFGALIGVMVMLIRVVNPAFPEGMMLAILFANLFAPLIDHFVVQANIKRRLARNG
T1 sequence (Q9HZK8 whole entry partner): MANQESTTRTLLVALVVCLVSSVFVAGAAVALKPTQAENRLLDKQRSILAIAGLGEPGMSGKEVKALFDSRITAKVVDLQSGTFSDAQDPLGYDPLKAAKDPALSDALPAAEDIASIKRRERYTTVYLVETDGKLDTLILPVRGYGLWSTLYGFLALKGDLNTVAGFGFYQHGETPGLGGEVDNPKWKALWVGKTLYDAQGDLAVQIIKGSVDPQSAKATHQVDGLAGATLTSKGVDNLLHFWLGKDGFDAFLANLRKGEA
T1 sequence (Q9HZK9 whole entry partner): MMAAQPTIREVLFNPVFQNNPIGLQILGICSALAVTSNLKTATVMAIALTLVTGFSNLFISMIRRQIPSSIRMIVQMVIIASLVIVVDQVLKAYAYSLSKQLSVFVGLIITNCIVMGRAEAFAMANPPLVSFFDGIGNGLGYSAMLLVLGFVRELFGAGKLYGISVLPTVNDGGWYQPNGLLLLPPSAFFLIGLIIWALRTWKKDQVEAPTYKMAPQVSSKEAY
T1 sequence (Q9HZL0 whole entry partner): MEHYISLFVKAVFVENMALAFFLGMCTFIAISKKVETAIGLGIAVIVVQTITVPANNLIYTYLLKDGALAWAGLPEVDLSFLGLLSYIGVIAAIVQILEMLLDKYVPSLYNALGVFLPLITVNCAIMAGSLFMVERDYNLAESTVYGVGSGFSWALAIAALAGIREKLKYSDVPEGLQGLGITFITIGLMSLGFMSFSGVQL

NQR = target: T2, NQR (Pseudomonas aeruginosa, UniProt Q9HZK7+Q9HZK9); experiment: HQNO titration of NADH-dependent oxygen consumption in isolated membranes; assay type: biochemical
T2 construct: gene nqrB; native NQR complex in LB and mAUM membranes; with six-subunit complex NqrA-F
T2 sequence (Q9HZK9 whole entry): as the sequence (Q9HZK9 whole entry partner) above
T2 sequence (Q9HZL1 whole entry, further chain): as the sequence (Q9HZL1 whole entry) above
T2 sequence (Q9HZK7 whole entry): as the sequence (Q9HZK7 whole entry partner) above
T2 sequence (Q9HZK6 whole entry, further chain): as the sequence (Q9HZK6 whole entry partner) above
T2 sequence (Q9HZL0 whole entry, further chain): as the sequence (Q9HZL0 whole entry partner) above
T2 sequence (Q9HZK8 whole entry, further chain): as the sequence (Q9HZK8 whole entry partner) above

## NC(=O)C1=CN([C@@H]2O[C@H](COP(=O)(O)OP(=O)(O)OC[C@H]3O[C@@H](n4cnc5c(N)ncnc54)[C@H](O)[C@@H]3O)[C@@H](O)[C@H]2O)C=CC1 [NADH]
[1]; 250 μM NADH
  ubiquinone reductase activity at 282 nm: purified P. aeruginosa NQR (F) using as substrates NADH (black) or deamino NADH

## NC(=O)C1=CN([C@@H]2O[C@H](COP(=O)(O)OP(=O)(O)OC[C@H]3O[C@@H](n4cnc5c(=O)[nH]cnc54)[C@H](O)[C@@H]3O)[C@@H](O)[C@H]2O)C=CC1 [deamino NADH]
[1]; 250 μM deamino NADH
  ubiquinone reductase activity at 282 nm: purified P. aeruginosa NQR (F) using as substrates NADH (black) or deamino NADH

## CCCCCCCc1cc(O)c2ccccc2[n+]1[O-] [HQNO]
NQR
  Ki: 2000 nM
